Literature values as cited in patent US11191273B2, “Methods of making pyranopyrans such as pyranopyran nitrile and methods of using pyranopyrans such as pyranopyran nitrile” (The United States of America, as Represented by the …, priority 2018, dated 2021).

Test system: cork oak (Quercus suber) cuttings
Conditions: literature; cited from earlier work

In the case of `C[C@H](O)[C@H]1C=C[C@@H]2OC(=O)C=C[C@@H]2O1` [Diplopyrone, 6-[(1S)-1-hydroxyethyl]-2,4a(S),6(R),8a(S)-tetrahydropyrano-[3,2-b]-pyran-2-one], the phytotoxic effect is given as “causes necrosis and wilting”.
